Patent publication US20040147788A1, “Stilbene derivatives and their use as aryl hydrocarbon receptor antagonistic ligands” (priority 2002, published 2004)

Legend:
ER = target: T1, ER (Homo sapiens, UniProt P03372); assay: ER-mediated transactivation, ERE-driven Luciferase reporter stable cell line (MCF-7-Luc); format: cell-based; conditions: trans-stilbenes; note: key: Ago: agonist; N.M.: not measurable
T1 construct: stably transfecting MCF-7 cells with the ERE-globin-tk-luc-SV-Neo plasmid; endogenous in cells; host or cells: MCF-7-Luc (MCF-7 stably transfected with ERE-globin-tk-luc-SV-Neo)
T1 sequence (P03372 1-595): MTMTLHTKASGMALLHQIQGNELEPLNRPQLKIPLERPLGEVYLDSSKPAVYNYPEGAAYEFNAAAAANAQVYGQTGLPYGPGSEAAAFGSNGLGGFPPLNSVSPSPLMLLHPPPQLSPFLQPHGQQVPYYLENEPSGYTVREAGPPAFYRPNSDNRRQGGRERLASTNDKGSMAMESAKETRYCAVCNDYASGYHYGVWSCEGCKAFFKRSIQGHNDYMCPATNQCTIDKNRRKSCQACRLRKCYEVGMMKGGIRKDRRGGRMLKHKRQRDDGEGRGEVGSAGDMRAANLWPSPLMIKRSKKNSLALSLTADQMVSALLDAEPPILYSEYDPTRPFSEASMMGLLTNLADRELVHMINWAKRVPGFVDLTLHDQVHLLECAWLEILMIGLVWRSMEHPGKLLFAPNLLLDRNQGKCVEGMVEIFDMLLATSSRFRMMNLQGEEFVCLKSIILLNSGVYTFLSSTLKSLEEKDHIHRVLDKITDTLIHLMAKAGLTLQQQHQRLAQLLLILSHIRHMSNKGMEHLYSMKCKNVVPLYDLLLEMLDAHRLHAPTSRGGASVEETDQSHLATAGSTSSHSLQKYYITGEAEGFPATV
Description: The human adenocarcinoma breast cell line MCF-7 was obtained from the American Tissue Culture Collection (Rockville, USA). The cells were established by stably transfecting MCF-7 cells with the ERE-globin-tk-luc-SV-Neo plasmid and thus expressed luciferase in an estrogen dependent manner MCF-7-Luc. […] Cells were incubated at 37° C. in a humidified 5% CO2 incubator. For experiments, cells were grown for 5 days in phenol red-free medium, containing 5% dextran-coated charcoal treated FCS (DCC-FCS). Medium was changed after 2 days. At day 5, cells were treated or not with compounds. Compounds were dissolved in ethanol.
For each condition, 15.103 cells were seeded per well in 12-well plates and treated, as described above, during 16 hours in a final volume of 0.5 mL. At the end of the treatment, cells were washed with PBS and lysed in 150 μl of lysis buffer (Promega, Charbonnieres, France). Luciferase activity was measured using the luciferase assay reagent (Promega), according to the manufacturer's instructions. Protein concentrations were measured using Bradford technique, to normalize the luciferase activity data. For each condition, average luciferase activity was calculated from the data of 3 independent wells.

A549 cell line = assay: Cytotoxicity, MTT colorimetric assay; format: cell-based, human
Description: Cytotoxicity was evaluated on the A549 cell line. […] A MTT colorimetric assay was employed as described in (5) according to the established procedure 1. Drug stock solutions were prepared in EtOH and the final solvent concentration was=1% EtOH(v/v), a concentration without effect on cell replication. […] Cells were cultured at 37° C. in RPMI-1640 medium with streptomycin/penicillin and 5% (v/v) FCS in a humidified atmosphere containing 5% CO2. Initial seeding densities varied among the cell lines to ensure a final absorbance reading in control cultures in the range of 0.7-1 […] units. After the addition of the samples to the cell culture, the cells were incubated for 5 days before the MTT reagent was added. Each test was performed in duplicate and absorbance readings varied no more than 5%.

AhR = target: T2, AhR (Homo sapiens, UniProt P35869); conditions: in humans; cited from earlier work
T2 sequence (P35869 11-848): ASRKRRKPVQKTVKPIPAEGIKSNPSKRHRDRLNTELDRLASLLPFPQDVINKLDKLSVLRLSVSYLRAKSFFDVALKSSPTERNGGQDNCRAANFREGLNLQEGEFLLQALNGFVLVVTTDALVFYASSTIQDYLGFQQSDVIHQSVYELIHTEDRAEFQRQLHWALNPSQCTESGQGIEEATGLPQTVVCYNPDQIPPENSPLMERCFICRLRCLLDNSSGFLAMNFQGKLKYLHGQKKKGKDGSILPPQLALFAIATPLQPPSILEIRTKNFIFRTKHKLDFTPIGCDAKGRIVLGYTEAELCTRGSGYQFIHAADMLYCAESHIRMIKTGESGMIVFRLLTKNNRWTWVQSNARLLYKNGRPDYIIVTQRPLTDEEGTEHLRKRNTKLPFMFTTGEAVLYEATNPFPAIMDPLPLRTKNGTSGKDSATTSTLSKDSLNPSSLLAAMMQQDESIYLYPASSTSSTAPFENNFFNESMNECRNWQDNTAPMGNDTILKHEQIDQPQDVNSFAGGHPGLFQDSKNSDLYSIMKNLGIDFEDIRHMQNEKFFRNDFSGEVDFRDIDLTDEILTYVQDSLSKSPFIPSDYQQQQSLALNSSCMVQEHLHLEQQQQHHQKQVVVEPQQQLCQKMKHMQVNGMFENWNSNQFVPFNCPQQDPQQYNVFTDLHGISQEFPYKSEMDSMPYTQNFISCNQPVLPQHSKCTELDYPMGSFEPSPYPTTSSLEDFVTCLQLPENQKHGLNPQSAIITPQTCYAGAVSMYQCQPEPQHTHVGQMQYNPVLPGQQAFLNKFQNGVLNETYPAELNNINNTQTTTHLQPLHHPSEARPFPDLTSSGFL

CYP1A1/AHH = conditions: read-out: ED50 for induction of CYP1A1/AHH; porcine aortic endothelial; cited from earlier work

| ER T.A. (transcriptional activity) (ER) | SMILES | cytotoxicity: not toxic up to concentration (A549 cell line) [µM] | Kd (AhR) [nM] | EC50 (CYP1A1/AHH) [nM] |
| --- | --- | --- | --- | --- |
| Ago | Oc1ccc(C=Cc2cc(O)cc(O)c2)cc1 [Resveratrol, 3,5,4′-trihydroxystilbene, reference compound] | > 10 | – | – |
| – | Clc1cc2c(cc1Cl)Oc1cc(Cl)c(Cl)cc1O2 [TCDD, 2,3,7,8-tetrachlorodibenzo-p-dioxin] | – | 1 | 0.015 |
